Here are results for one molecule from PMC6321136, “Combined In Vitro Studies and in Silico Target Fishing for the Evaluation of the Biological Activities of Diphylleia cymosa and Podophyllum hexandrum” (Molecules, 2018).

One data set has as its system Anticancer, Sarcoma. More on the design: method as in PubChem Bioassay AID 292. Conditions: ref PubChem Bioassay AID 292; cited from earlier work.
Data set [1] relates to Cytotoxicity, Agonist, antioxidant response element (ARE). On the set-up: method as in PubChem Bioassay AID 743203. Conditions: ref PubChem Bioassay AID 743203; cited from earlier work.
Data set [2] concerns Anti-Inflammatory model (counterscreen). On the set-up: method as in PubChem Bioassay AID 1318. Conditions: ref PubChem Bioassay AID 1318; cited from earlier work.
In data set [3] the test system is Escherichia coli ATCC 11775. The experiment in a line: Antibacterial microdilution assay. It is filed as cell-based. Conditions: ATCC11775, read-out: E. coli Mean ± SD (percentage of inhibition of microbial growth). Here is the method:
(§1) Antibacterial susceptibility was performed using the modified microdilution method for bacteria, against Gram-positive (Staphylococcus aureus ATCC 25923 and Bacillus cereus ATCC 11778) and Gram-negative recognized pathogens (Escherichia coli ATCC 11775, Enterohemorrhagic E. coli ATCC 43895-EHEC, Pseudomonas aeruginosa ATCC 10145 and Salmonella choleraesuis subs. choleraesuis sorotype Typhi BM/Panama-TY2).
(§2) The experiments were performed in 96 well microplates. The extracts and isolated substance solubilized in DMSO (Vetec^TM) at 50 mg/mL were diluted in Mueller Hinton Broth (MHB, Difco) at a concentration of 500 µg/mL. The bacterial isolates, criopreserved at −80 °C were grown in Tryptic Soy Agar (TSA, Acumedia®) plates, at 37 °C for 18–24 h. The inoculum was adjusted in saline solution in a spectrophotometer at 625 nm, to a concentration of 1–5 × 10^8 CFU/mL and then diluted in MHB to 1–5 × 10^5 CFU/mL.
(§3) Volumes of 100 μL of the inoculum were added to wells containing 100 μL of the extracts at […], in triplicate (one well intended for extract control), resulting in a final concentration of 250 μg/mL. Chloramphenicol at 50 μg/mL and 0.5% DMSO were used as positive and negative controls, respectively. Evaluation of microbial growth was carried out by adding the inoculum to a well containing only MHB. Sterility of the culture medium was also confirmed by incubation in the assay plate. Assays were performed in triplicate. The microplates were incubated at 37 °C for 24 h. As an indicator of microbial growth, 20 μL of 2,3,5-triphenyltetrazolium chloride (TTC, Sigma-Aldrich, St. Louis, MO, USA) at 5 mg/mLwere added to each well. The plates were incubated at 37 °C for 3 h and then the TTC was solubilized with 100 μL of sodium lauryl sulfate solution in isopropanol 7 μg/mL and measured in a microplate reader at 485 nm. The result was expressed as the percentage of inhibition compared with the microbial growth control, and was considered positive for antibacterial activity for those extracts with an inhibition higher than 50%.

The subject of data set [4] is Bacillus cereus ATCC 11778. The experiment in a line: Antibacterial microdilution assay. The class given is cell-based. Conditions: ATCC11778, read-out: B. cereus Mean ± SD (percentage of inhibition of microbial growth). On the procedure: as §1, §2, §3
(In general: In broth dilution the organism is exposed to a series of concentrations in liquid medium.)

The test system of data set [5] is Pseudomonas aeruginosa ATCC 10145. The experiment in a line: Antibacterial microdilution assay. The class given is cell-based. Here is the method: as §1, §2, §3
Data set [6] relates to Staphylococcus aureus ATCC 25923. The experiment in a line: Antibacterial microdilution assay. The class given is cell-based. Conditions: ATCC25923, read-out: S. aureus Mean ± SD (percentage of inhibition of microbial growth). Here is the method: as §1, §2, §3
A short description of data set [7]: β-Carotene/linoleic acid co-oxidation assay. Here is the method: The evaluation of the antioxidant activity using the β-carotene/linoleic acid co-oxidation system was performed according to Duarte-Almeida et al., with adaptations. The extracts were solubilized in MeOH (2.2 mg/mL) and further diluted to concentrations ranging from 3.125 to 200 μg/mL. An aliquot of 25 μL of sample solutions were added in the 96-well microplate. 25 mg of linoleic acid and 100 mg Tween 20 (Sigma, St. Louis, MO, USA) were added to a round-bottom flask containing 1 mL of a β-carotene solution (1 mg/mL, Sigma, St. Louis, MO, USA) in chloroform. The latter was removed in a rotatory evaporator and, then, 50 mL of aerated water was added to the flask, affording the β-carotene emulsion. Portions of 250 μL of the freshly prepared emulsion were added to the wells corresponding to the odd columns of a microplate. […] Readings were performed immediately at 470 nm. After the first reading, the microplate was incubated at 45 °C and the kinetic cycle was performed with readings at 15 min intervals for a total of 120 min. The antioxidant activity was expressed as % of inhibition of lipid peroxidation (%I), using the formula (I% = Ac (initial abs − Final abs) − Aam (final abs − Initial abs)/Ac × 100). Assays were performed in triplicate and IC50 values were determined by non-linear regression using GraphPad Prism, version 6.0 (GraphPad Software, San Diego, CA, USA).

The subject of data set [8] is Agonist, constitutive androstane receptor (CAR). More on the design: method as in PubChem Bioassay AID 1224839. The following applies: ref PubChem Bioassay AID 1224839; cited from earlier work.
Data set [9] concerns Agonist, androgen receptor (AR). More on the design: method as in PubChem Bioassay AID 743040. The following applies: ref PubChem Bioassay AID 743040; cited from earlier work.
In data set [10] the test system is Cytotoxicity, Agonist, endoplasmic reticulum stress response. More on the design: method as in PubChem Bioassay AID 1159517. The following applies: ref PubChem Bioassay AID 1159517; cited from earlier work.
The next data set has as its system Anti-Inflammatory model. On the set-up: method as in PubChem Bioassay AID 457. The following applies: ref PubChem Bioassay AID 457; cited from earlier work.
For data set [11], the system named is Activators, heat shock response. On the set-up: method as in PubChem Bioassay AID 743210. The following applies: ref PubChem Bioassay AID 743210; cited from earlier work.
The subject of data set [12] is ADMET, Cytochrome P450 3A4. More on the design: method as in PubChem Bioassay AID 884. The following applies: ref PubChem Bioassay AID 884; cited from earlier work.
For data set [13], the system named is beta-2 adrenergic receptor. More on the design: method as in PubChem Bioassay AID 504459. Conditions: ref PubChem Bioassay AID 504459; cited from earlier work.

Structures are written as SMILES. Bounds are passed on as bounds.

`COc1cc([C@@H]2c3cc4c(cc3[C@H](O)[C@H]3COC(=O)[C@H]23)OCO4)cc(OC)c1OC` [Podophyllotoxin, podophyllotoxin]: the “Exper. Activity” value with Anticancer, Sarcoma is given as “Active”; in [1], “Inactive”; in [2], “Inactive”; in [8], “Inactive”; in [9], “Inactive”; in data set [10], “Inactive”. Also, the “Exper. Activity” value with Anti-Inflammatory model is “Inactive”; in data set [11] it was “Inactive”; in [12], “Active”; in data set [13] it was “Inactive”. Further, the inhibition at 250 µg/mL in data set [3] is 51.6 ± 9.08%; in data set [4], 0%; in data set [5] (Pseudomonas aeruginosa, ATCC10145, read-out: P. aeruginosa Mean ± SD (percentage of inhibition of microbial growth)) it was 30.2 ± 9.39%; in [6] it was 53.3 ± 8.8%. For the same molecule, the “P. aeruginosa Mean ± SD (percentage of inhibition of microbial growth)” value in [5] (250 µg/mL) is on record as “No antibacterial activity”. Moreover, the “Antioxidant Activity (IC50-µg/mL) β-Carotene/linoleic Acid” value in [7] is above 200 µg/mL.

As usually defined, the inhibition is the relative decrease from the control value, in per cent.
